Where only a bound is given, the exact number is not on record here.

The test system of assay [1] is IL10 secretion by TMD8 ABC-DLBCL cells. Put plainly: Human IL10 Mesoscale assay (TMD-8). In kind it is cell-based. To be noted: Homo sapiens, TMD8; TMD-8 cells, 24 h. In a few lines: (§1)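 After 24 h at 37 °C with test compounds (15 μM down to 58.6 nM, 9 twofold steps, 0.3% DMSO), IL6 and IL10 secreted by 100,000 OCI-LY3 or TMD8 cells per well were measured in supernatants with a Mesoscale immunoassay. Data were scaled between DMSO wells (high) and RN486 treatment (low).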

In assay [2] the test system is IL6 secretion by TMD8 ABC-DLBCL cells. The assay can be described thus: Human IL6 Mesoscale assay (TMD-8). It counts as cell-based. To be noted: Homo sapiens, TMD8; TMD-8 cells, 24 h. In a few lines: as §1
The test system of assay [3] is Jurkat cells. Put plainly: PMA Induced IL2 Production In Jurkat Cells. In kind it is cell-based. To be noted: Homo sapiens, PMA/Ionomycin, 20 h, read-out: IL-2 prod h Jurkat PMA IC50. As to the method: Jurkat cells were maintained in complete RPMI 1640 media containing 10% fetal bovine serum, 10 mM HEPES, 100 units/mL of penicillin and 100 μg/mL of streptomycin. Prior to the assay, compounds were made 2- to 4-fold serial dilutions in DMSO. A volume of 10 μL of DMSO-diluted compound in each well were further diluted into 240 μL RPMI1640 complete media. Jurkat cells were harvested by centrifuge at 1200 RPM for 5 min, washed one time with RPMI 1640 media, and suspended in fresh complete RPMI 1640 media at concentration of 1.25×10^6 cell/mL. A volume of 160 uL of Jurkat cells (2×10^5 cells) were seeded in each well of 96 well plate-bottom plates. A volume of 20 uL of diluted compound in RMPI 1640 complete media were added to each well and incubated with Jurkat cells for 30 min at 37° C. in a 5% CO2 incubator. A volume 20 μL of diluted PMA/Ionomycin (81 nM/1.3 uM respectively, ebioscience, catalog number 00-4970-93) in RMPI 1640 complete media were added to each well. After incubation at 37° C. in 5% CO2 incubator for 20 h, supernatants were harvested. IL-2 concentration was assessed by ELISA (IL2 Duoset, R&D Systems, catalog number DY202). Colorimetric intensity at 450 nm was read by Spectramax plate reader and analyzed with Softmax Pro software. Cell viability was assessed by Cell Titer Glo kit (Promega, catalog number G7571) using Victor Luminescence reader (Victor 3V 4202938 by Perkin Elmer).

Assay [4] concerns TMD8 cells. The assay can be described thus: 4-day proliferation assay, TMD8. It counts as cell-based. To be noted: Homo sapiens, 96 h, 4 days incubation, CellTiterGLO, read-out: Anti-proliferation: TMD-8 IC50. In a few lines:
(§2)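 TMD8 and OCI-Ly3 cells were seeded at 10,000 per well and grown 4 days at 37° C, 5% CO2 without beta-mercaptoethanol. Viability was read by CellTiter-Glo luminescence. IC50 and Hill slope were fitted relative to the low control median.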
Background: In ATP-based viability assays light output follows the ATP content of the culture.

The target of assay [5] is full-length MALT1 protein (Strep-MALT1(1-824)-His) (Homo sapiens (Human), UniProt Q9UDY8). Put plainly: MALT1 Biochemical Protease Assay (Ac-LRSR-AMC substrate). To be noted: 10 nM FL MALT1, 200 μM Ac-LRSR-AMC, 4 h at RT; read-out: MALT1_Biochemical activity (Ac-LRSR-amc) IC50. The essentials: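 Full-length MALT1 pre-incubated with compounds (30 μM to 0.5 nM, 11 threefold steps) for 50 min at RT. After Ac-LRSR-AMC was added, the reaction ran 4 h at RT and AMC fluorescence was read. IC50 and Hill slope from curve fitting against no-enzyme and no-compound controls.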

Assay [6] relates to OCI-Ly3 cells. Put plainly: 4-day proliferation assay, OCI-Ly3. In kind it is cell-based, human. To be noted: Homo sapiens, 96 h, 4 days incubation, CellTiterGLO, read-out: Anti-proliferation: OCI-LY-3 IC50. The essentials:
as §2

Chain of full-length MALT1 protein (Strep-MALT1(1-824)-His) (Q9UDY8 whole entry): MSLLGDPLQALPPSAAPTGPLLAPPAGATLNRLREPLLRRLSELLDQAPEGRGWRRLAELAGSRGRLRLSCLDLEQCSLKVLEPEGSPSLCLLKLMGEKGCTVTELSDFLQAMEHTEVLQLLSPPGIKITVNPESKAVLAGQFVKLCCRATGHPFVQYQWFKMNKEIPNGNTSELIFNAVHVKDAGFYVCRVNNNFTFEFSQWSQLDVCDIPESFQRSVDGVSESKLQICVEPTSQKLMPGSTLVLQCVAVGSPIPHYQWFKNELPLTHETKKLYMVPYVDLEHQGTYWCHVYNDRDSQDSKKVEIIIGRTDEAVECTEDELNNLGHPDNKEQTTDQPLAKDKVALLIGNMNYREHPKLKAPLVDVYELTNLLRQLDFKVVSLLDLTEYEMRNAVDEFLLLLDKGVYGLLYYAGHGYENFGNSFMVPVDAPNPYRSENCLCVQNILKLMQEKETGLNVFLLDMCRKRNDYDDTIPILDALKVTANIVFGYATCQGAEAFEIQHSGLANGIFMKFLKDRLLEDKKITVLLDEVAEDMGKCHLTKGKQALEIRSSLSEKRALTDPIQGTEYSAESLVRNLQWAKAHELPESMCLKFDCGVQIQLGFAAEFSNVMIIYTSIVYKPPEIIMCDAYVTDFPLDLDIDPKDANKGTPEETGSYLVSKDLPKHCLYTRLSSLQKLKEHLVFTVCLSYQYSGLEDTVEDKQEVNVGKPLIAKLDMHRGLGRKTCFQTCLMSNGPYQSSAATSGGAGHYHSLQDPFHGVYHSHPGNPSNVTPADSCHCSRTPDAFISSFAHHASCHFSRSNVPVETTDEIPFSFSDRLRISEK

In the case of `O=C(Nc1cncc(C(F)(F)F)c1)c1cnn(-c2cccc3ccccc23)c1C(F)(F)F` [Cpd 4, 1-(Naphthalen-1-yl)-5-(trifluoromethyl)-N-(5-(trifluoromethyl)pyridin-3-yl)-1H-pyrazole-4-carboxamide], the IC50 in assay [1] is 214 nM; in assay [2], 339 nM; in assay [3], 360 nM; in assay [4], ~15800 nM; in assay [5] it was 200 nM; in assay [6], ~500 nM.
`COc1ncc(NC(=O)c2cnn(-c3cncc4ccccc34)c2C(F)(F)F)cc1C#N` [Cpd 24, N-(5-cyano-6-methoxypyridin-3-yl)-1-(isoquinolin-4-yl)-5-(trifluoromethyl)-1H-pyrazole-4-carboxamide]: the IC50 is 129 nM in assay [1]; 93 nM in assay [2]; 740 nM in assay [3]; ~10000 nM in assay [4]; 74 nM in assay [5]; ~1950 nM in assay [6].
For `O=C(Nc1cnc(-n2nccn2)c(Cl)c1)c1cnn(-c2cncc3ccccc23)c1C(F)(F)F` [Cpd 32, N-(5-chloro-6-(2H-1,2,3-triazol-2-yl)pyridin-3-yl)-1-(isoquinolin-4-yl)-5-(trifluoromethyl)-1H-pyrazole-4-carboxamide], the IC50 in assay [1] worked out at 14 nM; in assay [2], 17 nM; in assay [3] it was 2 nM; in assay [4], 4900 nM; in assay [5], 19 nM; in assay [6], 110 nM.
With `O=C(Nc1cnc(-n2nccn2)c(Cl)c1)c1cnn(-c2cccc3occc23)c1C(F)(F)F` [Cpd 34, 1-(Benzofuran-4-yl)-N-(5-chloro-6-(2H-1,2,3-triazol-2-yl)pyridin-3-yl)-5-(trifluoromethyl)-1H-pyrazole-4-carboxamide], the IC50 is 7 nM in assay [1]; ~11 nM in assay [2]; 16 nM in assay [3]; ~12000 nM in assay [4]; 9 nM in assay [5]; ~220 nM in assay [6].
Regarding `COC(C)c1c(C(=O)Nc2cnc(-n3nccn3)c(Cl)c2)cnn1-c1cccc2ncccc12` (stereo not drawn) [Cpd 35, N-(5-Chloro-6-(2H-1,2,3-triazol-2-yl)pyridin-3-yl)-5-(1-methoxyethyl)-1-(quinolin-5-yl)-1H-pyrazole-4-carboxamide], the IC50 in assay [1] was found to be 2880 nM; in assay [2], 6030 nM; in assay [3], 3240 nM; in assay [4] it was 11000 nM; in assay [5], 813 nM; in assay [6], 10700 nM.
In the case of `Cc1ccc2cncc(-n3ncc(C(=O)Nc4cnc(-n5nccn5)c(Cl)c4)c3C(F)(F)F)c2c1` [Cpd 36, N-(5-Chloro-6-(2H-1,2,3-triazol-2-yl)pyridin-3-yl)-1-(6-methylisoquinolin-4-yl)-5-(trifluoromethyl)-1H-pyrazole-4-carboxamide], the IC50 in assay [1] was found to be 141 nM; in assay [2], 135 nM; in assay [3] it was 270 nM; in assay [4], 7940 nM; in assay [5], 63 nM; in assay [6], 1910 nM.
Take `O=C(Nc1ccc(-n2nccn2)c(Cl)c1)c1cnn(-c2cncc3ccccc23)c1C(F)(F)F` [Cpd 38, N-(3-chloro-4-(2H-1,2,3-triazol-2-yl)phenyl)-1-(isoquinolin-4-yl)-5-(trifluoromethyl)-1H-pyrazole-4-carboxamide]: the IC50 is 14 nM in assay [1]; 46 nM in assay [2]; 21 nM in assay [3]; 3800 nM in assay [4]; 20 nM in assay [5]; 1150 nM in assay [6].
As to `Cc1c(C(=O)Nc2cnc(-n3nccn3)c(Cl)c2)cnn1-c1cccc2ncccc12` [Cpd 39, N-(5-Chloro-6-(2H-1,2,3-triazol-2-yl)pyridin-3-yl)-5-methyl-1-(quinolin-5-yl)-1H-pyrazole-4-carboxamide], the IC50 in assay [1] was 955 nM; in assay [2], 1950 nM; in assay [3], 1970 nM; in assay [4], 14400 nM; in assay [5], 759 nM; in assay [6], ~1120 nM.
For the compound `O=C(Nc1cnc(-n2nccn2)c(Cl)c1)c1cnn(-c2ccc(F)c3ncccc23)c1C(F)(F)F` [Cpd 40, N-(5-Chloro-6-(2H-1,2,3-triazol-2-yl)pyridin-3-yl)-1-(8-fluoroquinolin-5-yl)-5-(trifluoromethyl)-1H-pyrazole-4-carboxamide], the IC50 in assay [1] was found to be 35 nM; in assay [2], 30 nM; in assay [3], 95 nM; in assay [4], 6170 nM; in assay [5], 48 nM; in assay [6], 150 nM.
As for `N#Cc1ncc(NC(=O)c2cnn(-c3cncc4ccccc34)c2C(F)(F)F)cc1F` [Cpd 41, N-(6-cyano-5-fluoropyridin-3-yl)-1-(isoquinolin-4-yl)-5-(trifluoromethyl)-1H-pyrazole-4-carboxamide], the IC50 in assay [1] was 851 nM; in assay [2] it was ~2090 nM; in assay [3] it was 300 nM; in assay [4], > 20000 nM; in assay [5] it was 891 nM; in assay [6] it was 1580 nM.
Consider `O=C(Nc1cnc(N2CCCS2(=O)=O)c(Cl)c1)c1cnn(-c2cncc3ccccc23)c1C(F)(F)F` [Cpd 42, N-(5-Chloro-6-(1,1-dioxidoisothiazolidin-2-yl)pyridin-3-yl)-1-(isoquinolin-4-yl)-5-(trifluoromethyl)-1H-pyrazole-4-carboxamide], for which the IC50 in assay [1] is ~110 nM; in assay [2], 117 nM; in assay [3], 11 nM; in assay [4], 6170 nM; in assay [5] it was 162 nM; in assay [6] it was 560 nM.
`CN1CCC(Oc2ncc(NC(=O)c3cnn(-c4cncc5ccccc45)c3C(F)(F)F)cc2Cl)CC1` [Cpd 45, N-(5-chloro-6-((1-methylpiperidin-4-yl)oxy)pyridin-3-yl)-1-(isoquinolin-4-yl)-5-(trifluoromethyl)-1H-pyrazole-4-carboxamide]: the IC50 is 204 nM in assay [1]; 355 nM in assay [2]; 73 nM in assay [3]; ~9330 nM in assay [4]; 398 nM in assay [5]; 340 nM in assay [6].
As to `O=C(Nc1cnc(-n2cccn2)c(Cl)c1)c1cnn(-c2cncc3ccccc23)c1C(F)(F)F` [Cpd 46, N-(5-Chloro-6-(1H-pyrazol-1-yl)pyridin-3-yl)-1-(isoquinolin-4-yl)-5-(trifluoromethyl)-1H-pyrazole-4-carboxamide], the IC50 in assay [1] was 32 nM; in assay [2], ~46 nM; in assay [3] it was 22 nM; in assay [4], 9330 nM; in assay [5], 56 nM; in assay [6], 630 nM.
Consider `N#Cc1cc(NC(=O)c2cnn(-c3cncc4ccccc34)c2C(F)(F)F)cnc1-n1nccn1` [Cpd 47, N-(5-cyano-6-(2H-1,2,3-triazol-2-yl)pyridin-3-yl)-1-(isoquinolin-4-yl)-5-(trifluoromethyl)-1H-pyrazole-4-carboxamide], for which the IC50 in assay [1] is ~10 nM; in assay [2] it was ~48 nM; in assay [3], 9 nM; in assay [4], 8130 nM; in assay [5] it was 11 nM; in assay [6], ~190 nM.
Consider `CN1CCN(C(=O)c2ncc(NC(=O)c3cnn(-c4cncc5ccccc45)c3C(F)(F)F)cc2Cl)CC1` [Cpd 48, N-(5-chloro-6-(4-methylpiperazine-1-carbonyl)pyridin-3-yl)-1-(isoquinolin-4-yl)-5-(trifluoromethyl)-1H-pyrazole-4-carboxamide], for which the IC50 in assay [1] is ~2140 nM; in assay [2], ~830 nM; in assay [3], 450 nM; in assay [4], 16200 nM; in assay [5], 631 nM; in assay [6] it was 300 nM.

For the origin of these results see US10954214B2 (Janssen Pharmaceutica NV, priority 2016, dated 2021).
